Assay results as given in patent publication US20240197828A1, “Chimeric molecule to treat sepsis and other inflammatory conditions” (THE FEINSTEIN INSTITUTES FOR MEDICAL RESEARCH, priority 2022, published 2024).
Residues, ends and D or L forms follow the SMILES beside them.

Experiments:
WT mice [1] = experiment: Sterile eCIRP-induced inflammation by rmCIRP injection in mice; type: in vivo, mouse; conditions: rmCIRP 5 mg/kg co-incubated 30 min with test substance, r.o. injection, 4 hours, vs eCIRP alone
Description: FIG. 5A-5B. eCIRP-induced inflammation is attenuated by MOP3. WT mice were treated according to respective groups: PBS (volume equivalent), rmCIRP (5 mg/kg), or MOP3 (10 μg/kg) co-incubated with rmCIRP (5 mg/kg) for 30 mins prior to r.o. injection. After 4 hours, serum was measured for IL-6 (A) and TNFα (B) levels by ELISA. All experiments were performed 3 times, and all data were used for analysis (N=7-10). Data are expressed as mean±SEM and compared by one-way ANOVA and SNK test. *p<0.05 vs. PBS, #p<0.05 vs. eCIRP.
Adult (8-12 weeks) male, C57BL/6 wild-type (WT) mice (20-30 g) were purchased from Charles River Laboratories. […] For the design of in vivo models, sample size calculation was driven by variability, effect size, significance level and power as determined through performance of early feasibility and optimization pilot studies. […]
The mouse macrophage cell culture supernatants were analyzed for cytokine levels using ELISA kits (BD Biosciences, CA). […] TNF-α and IL-6 levels were measured in cell supernatants by ELISA in accordance with respective manufacturers' instructions (BD Biosciences, CA). Blood was collected, centrifuged at 4,000 RPM for 10 minutes, and sera was separated and analyzed for cytokine levels using ELISA kits (BD Biosciences, CA). TNF-α and IL-6 levels in the serum were measured by ELISA in accordance with respective manufacturers' instructions. […]

WT mice [2] = experiment: CLP-induced polymicrobial sepsis, 20 hours; type: in vivo, mouse; conditions: vs vehicle
Description: FIG. 6A-6M: MOP3 ameliorates inflammation, lung injury, and improves survival in sepsis. WT mice subjected to CLP-induced sepsis with MOP3 treatment (10 μg/kg) or vehicle (volume-equivalent). After 20 hours, blood and lung tissue collected for respective analyses. (A-C) Serum was analyzed for systemic eCIRP, IL-6, and TNFα levels by ELISA. (D-F) Serum was analyzed for ALT, AST, and LDH by calorimetric assays. (G-I) Lung tissue was frozen and mRNA expression of IL-6, TNFα, and IL-1β was measured by PCR and MPO by calorimetric assay. (J) Lung tissue was frozen and analyzed for MPO levels by calorimetric assay. (K) Lungs were sectioned, imaged for histologic injury by H&E staining, and performed lung injury scoring. (L) Sectioned lungs were stained for TUNEL positive cells and cell counts were quantified. All experiments were performed 3 times, and all data were used for analysis (N=6-18). Data are expressed as mean±SEM and compared by one-way ANOVA and SNK test. *p<0.05 vs. sham, #p<0.05 vs. CLP vehicle. (M) WT mice subjected to CLP-induced sepsis with MOP3 treatment (10 μg/kg) or vehicle (volume equivalent) and monitored for 10 days for humane endpoints, and differences in survival were determined (N=17 per group). *p<0.05 vs. CLP vehicle.
Adult (8-12 weeks) male, C57BL/6 wild-type (WT) mice (20-30 g) were purchased from Charles River Laboratories. MFG-E8 knockout mice (MFG-E8^−/−) were originally obtained from Dr. Shigekazu Nagata, Osaka University of Japan, and bred following our Institutional Animal Care and Use Committee (IACUC) policies. Age-matched, healthy mice were used in all experiments. Animals were randomly assigned to sham, vehicle, or treatment groups. Concerted effort was made to ensure that a limited number of animals were used in each experiment. All experiments were previously approved by IACUC of the Feinstein Institutes for Medical Research (Manhasset, NY) and were performed in accordance with the guidance for the use of experimental animals by the National Institutes of Health (Bethesda, MD). For the design of in vivo models, sample size calculation was driven by variability, effect size, significance level and power as determined through performance of early feasibility and optimization pilot studies.
Sepsis was induced in mice by cecal ligation and puncture (CLP) as previously described (4). Briefly, mice were anesthetized with inhaled isoflurane to achieve adequate anesthesia. After placement in the supine position, the abdomen was shaved and disinfected. A 2-cm midline laparotomy was created. The cecum was located and eviscerated from the abdomen and then ligated with a 4-0 silk suture approximately 1 cm proximal from the terminal cecal extremity. For short-term experiments using this polymicrobial sepsis model, the cecum was punctured twice (through and through) with a 22G needle. Careful extraction of a consistent, small amount of cecal content was extruded, and the cecum along with cecal content was returned to the peritoneal cavity. […] All comparative surgeries were performed on the same day to reduce severity-variability. All short-term experiments were repeated at least three-times to ensure reproducibility of relative markers of inflammation and injury.
For respective experiments, either WT or MFG-E8 knockout mice were subjected to CLP. For treatment experiments, mice were randomly assigned to either vehicle or treatment groups. MOP3 ([…]) was given via retroorbital (r.o.) injection at time of surgery, immediately following abdominal closure. Vehicle groups received an equivalent volume of normal saline via r.o. injection. For resuscitation, mice additionally received subcutaneous injection of 500 μL of normal saline immediately after abdominal closure.
The mouse macrophage cell culture supernatants were analyzed for cytokine levels using ELISA kits (BD Biosciences, CA). […]

Compound: CC(C)C[C@H](NC(=O)[C@H](CC(N)=O)NC(=O)[C@H](Cc1c[nH]c2ccccc12)NC(=O)[C@@H](NC(=O)[C@H](CCCCN)NC(=O)[C@H](Cc1ccc(O)cc1)NC(=O)[C@H](CO)NC(=O)[C@H](CO)NC(=O)[C@H](CO)NC(=O)[C@H](CC(=O)O)NC(=O)CNC(=O)[C@@H](N)CCCNC(=N)N)[C@@H](C)O)C(=O)N[C@@H](CCCNC(=N)N)C(=O)N[C@@H](C)C(=O)N[C@@H](Cc1ccccc1)C(=O)NCC(=O)N[C@@H](Cc1c[nH]c2ccccc12)C(=O)N[C@@H](Cc1ccc(O)cc1)C(=O)O [MOP3, RGDSSSYKTWNLRAFGWY] (H-RGDSSSYKTWNLRAFGWY-OH; N-terminus and C-terminus assumed)
- serum IL-6 levels (WT mice [1]): reduced systemic levels
- serum TNFα levels (WT mice [1]): reduced systemic levels
- lung tissue mRNA levels of IL-1β (WT mice [2]; PCR): reduced
- lung tissue mRNA levels of IL-6 (WT mice [2]; PCR): reduced
- lung tissue mRNA levels of TNFα (WT mice [2]; PCR): reduced
- serum levels of eCIRP (WT mice [2]; one-time intravenous MOP3 at surgical closure): significantly reduced
- systemic IL-6 (WT mice [2]; serum): attenuated systemic inflammation
- systemic TNFα (WT mice [2]; serum): attenuated systemic inflammation
- apoptotic cells in lungs (TUNEL) (WT mice [2]): significantly less apoptotic cells
- lung MPO levels (WT mice [2]): decreased
- lung histologic architecture (H&E, lung injury) (WT mice [2]): significantly preserved histologic architecture
- serum ALT levels (WT mice [2]): reduced
- serum AST levels (WT mice [2]): reduced
- serum LDH levels (WT mice [2]): reduced
